Reference: PubChem BioAssay (NCI)
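Step 1: Grow cells in 96-well plates. Step 2: Expose to compound for 48 hours at 5 concentrations. Step 3: Interpolate endpoints linearly; if unreached, use highest concentration. Abbreviation: GI50, concentration required for 50% inhibition of growth. TGI is the concentration that stops growth completely.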

Columns and labels:
Experiment in all cases: NCI anticancer screen, dose series, 48 h
786-0 renal = test system: 786-0 renal
A498 renal = test system: A498 renal
BT-549 breast = test system: BT-549 breast
DU-145 prostate = test system: DU-145 prostate
K-562 leukemia = test system: K-562 leukemia
PC-3 prostate = test system: PC-3 prostate
SW-620 colon = test system: SW-620 colon
HOP-92 NSCLC = test system: HOP-92 NSCLC
MDA-N = test system: MDA-N
DLD-1 colon = test system: DLD-1 colon
DMS 114 small cell lung = test system: DMS 114 small cell lung
SNB-78 CNS = test system: SNB-78 CNS
XF 498 CNS = test system: XF 498 CNS

Compound: N#CC1=C(N)Nc2nc3ccccc3n2C1c1ccccc1 (centres undefined)
- TGI (786-0 renal): > 100 µM
- TGI (A498 renal): 96.1 µM
- TGI (BT-549 breast): 62.4 µM
- TGI (DU-145 prostate): > 100 µM
- TGI (K-562 leukemia): > 100 µM
- TGI (PC-3 prostate): > 100 µM
- TGI (SW-620 colon): > 100 µM

Compound: S=C1NN=C2C(=C3CCCC4C5CCCCC5N2C34)N1 (centres undefined)
- TGI (BT-549 breast): > 100 µM
- TGI (DU-145 prostate): > 100 µM
- TGI (HOP-92 NSCLC): > 100 µM
- TGI (K-562 leukemia): > 100 µM
- TGI (SW-620 colon): > 100 µM

Compound: COc1ccc(/C=C/[N+](=O)[O-])cc1
- TGI (786-0 renal): > 100 µM
- TGI (A498 renal): 17.3 µM
- TGI (DU-145 prostate): 20.3 µM
- TGI (K-562 leukemia): > 100 µM
- TGI (SW-620 colon): > 100 µM

Compound: C/C(=C\COP(=O)(O)OP(=O)(O)O)CC/C=C(\C)CNc1ccc([N+](=O)[O-])cc1
- TGI (786-0 renal): > 100 µM
- TGI (DU-145 prostate): > 100 µM
- TGI (HOP-92 NSCLC): > 100 µM
- TGI (K-562 leukemia): > 100 µM
- TGI (PC-3 prostate): > 100 µM
- TGI (SW-620 colon): > 100 µM

Compound: C[C@H](CCC1=NCCN1)[C@H]1CC[C@H]2[C@@H]3CC[C@@H]4C[C@H](O)CC[C@]4(C)[C@H]3CC[C@]12C
- TGI (A498 renal): 34.5 µM
- TGI (BT-549 breast): 33.4 µM
- TGI (DU-145 prostate): 35.8 µM
- TGI (HOP-92 NSCLC): 19.5 µM
- TGI (K-562 leukemia): > 21.8 µM
- TGI (MDA-N): 29.5 µM
- TGI (PC-3 prostate): 28.4 µM
- TGI (SW-620 colon): > 48.9 µM

Compound: NC(=O)c1cc(C2OC(CO)C(O)C2O)nn1-c1ccc([N+](=O)[O-])cc1 (centres undefined)
- TGI (A498 renal): > 100 µM
- TGI (DLD-1 colon): > 100 µM
- TGI (DMS 114 small cell lung): > 100 µM
- TGI (HOP-92 NSCLC): > 100 µM
- TGI (K-562 leukemia): > 100 µM
- TGI (SNB-78 CNS): > 100 µM
- TGI (SW-620 colon): > 100 µM
- TGI (XF 498 CNS): > 100 µM

Compound: C#C[C@@]1(O)[C@@H](CO)O[C@@H](n2cc(F)c3c(N)ncnc32)[C@@H]1O
- GI50 (A498 renal): 0.725 µM
- TGI (A498 renal): 2.27 µM
- GI50 (BT-549 breast): 0.843 µM
- TGI (BT-549 breast): 4.18 µM
- GI50 (DU-145 prostate): 0.354 µM
- TGI (DU-145 prostate): 13.4 µM
- GI50 (K-562 leukemia): 0.285 µM
- TGI (K-562 leukemia): > 100 µM
- GI50 (PC-3 prostate): 0.293 µM
- TGI (PC-3 prostate): 3.24 µM
- GI50 (SW-620 colon): 0.159 µM
- TGI (SW-620 colon): 2.9 µM

Compound: COC(=O)c1nc2c3c(cccc3c1C(=O)OC)Nc1ccccc1-2
- TGI (786-0 renal): > 100 µM
- TGI (A498 renal): > 100 µM
- TGI (BT-549 breast): > 100 µM
- TGI (DU-145 prostate): > 100 µM
- TGI (HOP-92 NSCLC): 50.2 µM
- TGI (K-562 leukemia): > 100 µM
- TGI (MDA-N): > 100 µM
- TGI (PC-3 prostate): 82.1 µM
- TGI (SW-620 colon): > 100 µM

Compound: O=C(O)C(Br)Cc1ccc2c(c1)OCO2 (centres undefined)
- TGI (A498 renal): > 100 µM
- TGI (DLD-1 colon): > 100 µM
- TGI (DMS 114 small cell lung): > 100 µM
- TGI (HOP-92 NSCLC): > 100 µM
- TGI (K-562 leukemia): > 100 µM
- TGI (SNB-78 CNS): > 100 µM
- TGI (SW-620 colon): > 100 µM
- TGI (XF 498 CNS): 89.3 µM

Compound: COc1ccc(/C(Cl)=C(\C=O)c2ccc(Cl)c(Cl)c2)cc1OC
- TGI (A498 renal): 30.4 µM
- TGI (DLD-1 colon): 20.3 µM
- TGI (DMS 114 small cell lung): 33.9 µM
- TGI (HOP-92 NSCLC): 13.8 µM
- TGI (K-562 leukemia): > 100 µM
- TGI (SNB-78 CNS): 31.2 µM
- TGI (SW-620 colon): 16.3 µM
- TGI (XF 498 CNS): 7.95 µM

Compound: COc1cc2c3c(c4cc(OC)c(OC)cc4c2cc1OC)[C@H](O)[C@@H]1CCCN1C3
- TGI (BT-549 breast): 9.63 µM
- TGI (DU-145 prostate): 1.45 µM
- TGI (HOP-92 NSCLC): 2.32 µM
- TGI (K-562 leukemia): > 100 µM
- TGI (PC-3 prostate): 1.98 µM
- TGI (SW-620 colon): > 100 µM

Compound: CSc1sc(=S)sc1SC
- TGI (A498 renal): > 100 µM
- TGI (DLD-1 colon): > 100 µM
- TGI (DMS 114 small cell lung): > 100 µM
- TGI (HOP-92 NSCLC): > 100 µM
- TGI (K-562 leukemia): > 100 µM
- TGI (SNB-78 CNS): > 100 µM
- TGI (SW-620 colon): > 100 µM
- TGI (XF 498 CNS): > 100 µM

Compound: COc1cc2c3c(n(C4CCNCC4)c(=O)c2cc1OC)-c1cc2c(cc1C3=O)OCO2
- GI50 (A498 renal): 0.619 µM
- TGI (A498 renal): 3.32 µM
- GI50 (DU-145 prostate): 0.423 µM
- TGI (DU-145 prostate): 1.55 µM
- GI50 (HOP-92 NSCLC): 2.45 µM
- TGI (HOP-92 NSCLC): 28.3 µM
- GI50 (SW-620 colon): 0.225 µM
- TGI (SW-620 colon): 1.95 µM

Compound: Nc1nncs1
- TGI (786-0 renal): > 5000 µM
- TGI (A498 renal): > 5000 µM
- TGI (BT-549 breast): > 5000 µM
- TGI (DLD-1 colon): > 5000 µM
- TGI (DMS 114 small cell lung): > 5000 µM
- TGI (DU-145 prostate): > 5000 µM
- TGI (HOP-92 NSCLC): 4660 µM
- TGI (K-562 leukemia): > 5000 µM
- TGI (MDA-N): > 5000 µM
- TGI (PC-3 prostate): > 5000 µM
- TGI (SNB-78 CNS): > 4420 µM
- TGI (SW-620 colon): > 5000 µM
- TGI (XF 498 CNS): 3890 µM

Compound: COc1ccc2c(c1)/C(=C\c1cccc(/C=C3/C(=O)Nc4ccc(OC)cc43)n1)C(=O)N2
- TGI (786-0 renal): 2.55 µM
- TGI (A498 renal): 6.03 µM
- TGI (BT-549 breast): 6.39 µM
- TGI (DU-145 prostate): 9.73 µM
- TGI (HOP-92 NSCLC): 7.44 µM
- TGI (K-562 leukemia): 2.02 µM
- TGI (PC-3 prostate): 8.91 µM
- TGI (SW-620 colon): 7.92 µM

Compound: CCOn1cc(C2=C(c3c[nH]c4ccccc34)C(=O)NC2=O)c2ccccc21
- TGI (786-0 renal): 15.7 µM
- GI50 (DU-145 prostate): 0.163 µM
- TGI (DU-145 prostate): 16.9 µM
- GI50 (HOP-92 NSCLC): 23.2 µM
- TGI (HOP-92 NSCLC): 38.8 µM
- GI50 (K-562 leukemia): < 0.0139 µM
- TGI (K-562 leukemia): > 33.1 µM
- GI50 (PC-3 prostate): < 0.0389 µM
- TGI (PC-3 prostate): 17.3 µM
- GI50 (SW-620 colon): < 0.01 µM
- TGI (SW-620 colon): 22.7 µM

Compound: COC1/C=C\OC2(C)Oc3c(C)c(O)c4c(O)c(c(CN(C)C)c(O)c4c3C2=O)NC(=O)/C(C)=C\C=C/C(C)C(O)C(C)C(O)C(C)C(OC(C)=O)C1C (centres undefined)
- TGI (786-0 renal): > 100 µM
- TGI (A498 renal): > 100 µM
- TGI (BT-549 breast): > 100 µM
- TGI (DU-145 prostate): > 100 µM
- TGI (HOP-92 NSCLC): > 100 µM
- TGI (K-562 leukemia): 85.2 µM
- TGI (MDA-N): > 100 µM
- TGI (PC-3 prostate): 72 µM
- TGI (SW-620 colon): 75.6 µM

Compound: O=C1OC2(c3ccc(O)cc3Oc3cc(O)ccc32)c2c1c(-c1ccccc1)c(-c1ccccc1)c(-c1ccccc1)c2-c1ccccc1
- TGI (786-0 renal): 75.6 µM
- TGI (A498 renal): 33.9 µM
- TGI (BT-549 breast): 53.8 µM
- TGI (DU-145 prostate): 35.2 µM
- TGI (HOP-92 NSCLC): 36.8 µM
- TGI (K-562 leukemia): 70 µM
- TGI (MDA-N): 44.9 µM
- TGI (PC-3 prostate): 32.7 µM
- TGI (SW-620 colon): 52 µM

Compound: CCCCCCCCCCCCCCCCOCCCOP(=O)(O)C1CCCN(O)C1=O (centres undefined)
- GI50 (A498 renal): 1.73 µM
- TGI (A498 renal): 12.4 µM
- GI50 (DU-145 prostate): 2.53 µM
- TGI (DU-145 prostate): > 100 µM
- GI50 (HOP-92 NSCLC): 6.08 µM
- TGI (HOP-92 NSCLC): 40 µM
- GI50 (K-562 leukemia): 4.25 µM
- TGI (K-562 leukemia): 42.3 µM
- GI50 (PC-3 prostate): 0.468 µM
- TGI (PC-3 prostate): 13.6 µM
- GI50 (SW-620 colon): 1.47 µM
- TGI (SW-620 colon): 22.3 µM

Compound: CC1(C)N=C(N)N=C(N)N1c1cccc(OCc2cccc([N+](=O)[O-])c2)c1
- TGI (786-0 renal): > 100 µM
- TGI (A498 renal): > 100 µM
- TGI (BT-549 breast): > 100 µM
- TGI (DU-145 prostate): > 100 µM
- TGI (HOP-92 NSCLC): > 100 µM
- TGI (K-562 leukemia): > 100 µM
- TGI (MDA-N): > 100 µM
- TGI (PC-3 prostate): > 82.7 µM
- TGI (SW-620 colon): > 100 µM
